Results from US20230061736A1, “GPR119 AGONISTS” (Kallyope, Inc., priority 2019, published 2023).

Biological target: T1, human GPR119 (hGPR119) (Homo sapiens, UniProt Q8TDV5)
T1 construct: expressed in transfected cells
T1 sequence (Q8TDV5 1-335): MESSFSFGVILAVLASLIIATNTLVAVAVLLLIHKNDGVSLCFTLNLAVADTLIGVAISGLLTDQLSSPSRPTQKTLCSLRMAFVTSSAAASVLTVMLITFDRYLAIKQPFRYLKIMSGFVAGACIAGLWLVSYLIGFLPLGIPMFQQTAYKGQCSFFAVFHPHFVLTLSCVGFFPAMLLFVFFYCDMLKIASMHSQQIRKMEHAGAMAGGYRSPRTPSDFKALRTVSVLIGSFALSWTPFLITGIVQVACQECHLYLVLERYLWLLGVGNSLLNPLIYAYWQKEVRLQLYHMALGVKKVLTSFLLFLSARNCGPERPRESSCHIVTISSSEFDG
Experiment: cAMP accumulation assay (cAMP Gs dynamic HTRF kit)
Type: cell-based
Conditions: CHO-K1 cells stably expressing hGPR119, 4-parameter fit; for Emax: 1 h, % activity normalized to Max/Min controls; for EC50: cAMP accumulation
Outline: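 CHO-K1 cells stably expressing hGPR119, used as assay-ready frozen stocks at ~10,000 cells/well, exposed to compound dose-response in stimulation buffer with Tween 80 for 60 min at 37° C. cAMP read by HTRF (665/620 nm ratio), normalised to Max/Min controls; EC50 and Max activity from 4-parameter fit.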

Row | Emax [%] | EC50 [nM] | Compound
1 | 100 to 130 | ≤ 100 | O=C(CCC1CN(C(=O)Cc2c(F)cc(OCCCC3CCN(c4ncc(Cl)cn4)CC3)cc2F)C1)NCC(O)(CO)CO [Example 36, 3-[1-[2-[4-[3-[1-(5-chloropyrimidin-2-yl)-4-piperidyl]propoxy]-2,6-difluoro-phenyl]acetyl]azetidin-3-yl]-N-[2,3-dihydroxy-2-(hydroxymethyl)propyl]propanamide]
2 | ≥ 130 | 1000 to 10000 | O=C(Cc1ccc(OCCCC2CCN(c3ncc(Cl)cn3)CC2)cc1F)NCCCCS(=O)(=O)O [Example 12, 4-[[2-[4-[3-[1-(5-chloropyrimidin-2-yl)-4-piperidyl]propoxy]-2-fluoro-phenyl]acetyl]amino]butane-1-sulfonic acid]
3 | 100 to 130 | 100 to 1000 | O=C(NCCCCCCS(=O)(=O)O)C1CN(C(=O)Cc2ccc(OCCCC3CCN(c4ncc(Cl)cn4)CC3)cc2F)C1 [Example 175, 6-[[1-[2-[4-[3-[1-(5-chloropyrimidin-2-yl)-4-piperidyl]propoxy]-2-fluoro-phenyl]acetyl]azetidine-3-carbonyl]amino]hexane-1-sulfonic acid]
4 | 100 to 130 | 100 to 1000 | CC1(OC(=O)N2CCC(CCCOc3ccc(CC(=O)N4CC(CNC[C@H](O)[C@@H](O)[C@H](O)[C@H](O)CO)C4)c(F)c3)CC2)CC1 (racemic) [Example 119, (1-methylcyclopropyl) 4-[3-[3-fluoro-4-[2-oxo-2-[3-[[[rac-(2S,3R,4R,5R)-2,3,4,5,6-pentahydroxyhexyl]amino]methyl]azetidin-1-yl]ethyl]phenoxy]propyl]piperidine-1-carboxylate]
5 | 100 to 130 | ≤ 100 | O=C(Cc1c(F)cc(OCCCC2CCN(c3ncc(Cl)cn3)CC2)cc1F)N1CC[C@@H](CNCC(O)(CO)CO)C1 [Example 150, 2-[4-[3-[1-(5-chloropyrimidin-2-yl)-4-piperidyl]propoxy]-2,6-difluoro-phenyl]-1-[(3S)-3-[[[2,3-dihydroxy-2-(hydroxymethyl)propyl]amino]methyl]pyrrolidin-1-yl]ethanone]
6 | 100 to 130 | ≤ 100 | CCc1cnc(N2CCC(CCCOc3cc(F)c(CC(=O)N4CC(CNCC(O)(CO)CO)C4)c(F)c3)CC2)nc1 [Example 67, 1-(3-(((2,3-dihydroxy-2-(hydroxymethyl)propyl)amino)methyl)azetidin-1-yl)-2-(4-(3-(1-(5-ethylpyrimidin-2-yl)piperidin-4-yl)propoxy)-2,6-difluorophenyl)ethan-1-one]
7 | 100 to 130 | 100 to 1000 | O=C(CC1CN(C(=O)Cc2ccc(OCCCC3CCN(c4ncc(Cl)cn4)CC3)cc2F)C1)NCCCS(=O)(=O)O [Example 177, 3-[[2-[1-[2-[4-[3-[1-(5-chloropyrimidin-2-yl)-4-piperidyl]propoxy]-2-fluoro-phenyl]acetyl]azetidin-3-yl]acetyl]amino]propane-1-sulfonic acid]
8 | 100 to 130 | ≤ 100 | O=C(Cc1ccc(OCCCC2CCN(c3ncc(Cl)cn3)CC2)cc1F)N1CC(CCNCC(CO)CO)C1 [Example 57, 2-(4-(3-(1-(5-chloropyrimidin-2-yl)piperidin-4-yl)propoxy)-2-fluorophenyl)-1-(3-(2-((3-hydroxy-2-(hydroxymethyl)propyl)amino)ethyl)azetidin-1-yl)ethan-1-one]
9 | 100 to 130 | 100 to 1000 | COc1cnc(N2CCC(CCCOc3ccc(CC(=O)N4CC(CNC[C@H](O)[C@@H](O)[C@H](O)[C@H](O)CO)C4)c(F)c3)CC2)nc1 (racemic) [Example 79, 2-[2-fluoro-4-[3-[1-(5-methoxypyrimidin-2-yl)-4-piperidyl]propoxy]phenyl]-1-[3-[[[rac-(2S,3R,4R,5R)-2,3,4,5,6-pentahydroxyhexyl]amino]methyl]azetidin-1-yl]ethanone]
10 | 100 to 130 | ≤ 100 | CCCc1cnc(N2CCC(CCCOc3cc(F)c(CC(=O)NC(CO)(CO)CO)c(F)c3)CC2)nc1 [Example 8, 2-[2,6-difluoro-4-[3-[1-(5-propylpyrimidin-2-yl)-4-piperidyl]propoxy]phenyl]-N-[2-hydroxy-1,1-bis(hydroxymethyl)ethyl]acetamide]
11 | 100 to 130 | 100 to 1000 | CC(C)OC(=O)N1CCC(CCCOc2ccc(CC(=O)N3CC(CNC[C@H](O)[C@@H](O)[C@H](O)[C@H](O)CO)C3)c(F)c2)CC1 [Example 112, isopropyl 4-[3-[3-fluoro-4-[2-oxo-2-[3-[[[(2S,3R,4R,5R)-2,3,4,5,6-pentahydroxyhexyl]amino]methyl]azetidin-1-yl]ethyl]phenoxy]propyl] piperidine-1-carboxylate]
12 | 100 to 130 | 100 to 1000 | O=C(Cc1ccc(OCCC[C@@H]2[C@H]3CN(c4ncc(Cl)cn4)C[C@@H]23)cc1F)N1CC(CNC[C@H](O)[C@@H](O)[C@H](O)[C@H](O)CO)C1 [Example 113, 2-[4-[3-[(1R,5S)-3-(5-chloropyrimidin-2-yl)-3-azabicyclo[3.1.0]hexan-6-yl]propoxy]-2-fluoro-phenyl]-1-[3-[[[(2S,3R,4R,5R)-2,3,4,5,6-pentahydroxyhexyl]amino]methyl]azetidin-1-yl]ethanone]
13 | 100 to 130 | 1000 to 10000 | O=C(Cc1ccc(OCCCC2CCN(c3ncc(Cl)cn3)CC2)cn1)N1CC(CNC[C@H](O)[C@@H](O)[C@H](O)[C@H](O)CO)C1 [Example 169, 2-[5-[3-[1-(5-chloropyrimidin-2-yl)-4-piperidyl]propoxy]-2-pyridyl]-1-[3-[[[(2S,3R,4R,5R)-2,3,4,5,6-pentahydroxyhexyl]amino]methyl]azetidin-1-yl]ethanone]
14 | 100 to 130 | ≤ 100 | O=C(Cc1ccc(OCCCC2CCN(c3ncc(Cl)cn3)CC2)cc1F)N1CC(CNCC(O)(CO)CO)C1 [Example 43, 2-[4-[3-[1-(5-chloropyrimidin-2-yl)-4-piperidyl]propoxy]-2-fluoro-phenyl]-1-[3-[[[2,3-dihydroxy-2-(hydroxymethyl)propyl]amino]methyl]azetidin-1-yl]ethanone]
15 | 100 to 130 | 100 to 1000 | O=C(Cc1ccc(OCCCC2CCN(c3ncc(Cl)cn3)CC2)cc1F)NCCC(=O)NC(CO)CO [Example 19, 3-[[2-[4-[3-[1-(5-chloropyrimidin-2-yl)-4-piperidyl]propoxy]-2-fluoro-phenyl]acetyl]amino]-N-[2-hydroxy-1-(hydroxymethyl)ethyl]propanamide]
16 | ≥ 130 | 100 to 1000 | O=C(CC1CN(C(=O)Cc2ccc(OCCCC3CCN(c4ncc(Cl)cn4)CC3)cc2F)C1)NCC(O)(CO)CO [Example 33, 2-[1-[2-[4-[3-[1-(5-chloropyrimidin-2-yl)-4-piperidyl]propoxy]-2-fluoro-phenyl]acetyl]azetidin-3-yl]-N-[2,3-dihydroxy-2-(hydroxymethyl)propyl]acetamide]
17 | 100 to 130 | ≤ 100 | O=C(NC(CO)(CO)CO)[C@H]1CCN(C(=O)Cc2ccc(OCCCC3CCN(c4ncc(Cl)cn4)CC3)cc2F)C1 [Example 103, (3S)-1-[2-[4-[3-[1-(5-chloropyrimidin-2-yl)-4-piperidyl]propoxy]-2-fluoro-phenyl]acetyl]-N-[2-hydroxy-1,1-bis(hydroxymethyl)ethyl]pyrrolidine-3-carboxamide]
18 | 100 to 130 | ≤ 100 | COCc1cnc(N2CCC([C@H]3C[C@H]3CCOc3ccc(CC(=O)N4CC[C@@H](CNCC(O)(CO)CO)C4)c(F)c3)CC2)nc1 [Example 162, 2-[2-fluoro-4-[2-[(1S,2R)-2-[1-[5-(methoxymethyl)pyrimidin-2-yl]-4-piperidyl]cyclopropyl]ethoxy]phenyl]-1-[(3S)-3-[[[2,3-dihydroxy-2-(hydroxymethyl)propyl]amino]methyl]pyrrolidin-1-yl]ethanone]
19 | 100 to 130 | 100 to 1000 | O=C(Cc1ccc(OCCCC2CCN(C(=O)OC3(C(F)(F)F)COC3)CC2)cc1F)N1CC(CNC[C@H](O)[C@@H](O)[C@H](O)[C@H](O)CO)C1 [Example 125, [3-(trifluoromethyl)oxetan-3-yl] 4-[3-[3-fluoro-4-[2-oxo-2-[3-[[[(2S,3R,4R,5R)-2,3,4,5,6-pentahydroxyhexyl]amino]methyl]azetidin-1-yl]ethyl]phenoxy]propyl]piperidine-1-carboxylate]
20 | ≥ 130 | 100 to 1000 | O=C(Cc1ccc(OCCCC2CCN(c3ncc(Cl)cn3)CC2)cc1F)NCCCC(=O)NC(CO)(CO)CO [Example 22, 4-[[2-[4-[3-[1-(5-chloropyrimidin-2-yl)-4-piperidyl]propoxy]-2-fluoro-phenyl]acetyl]amino]-N-[2-hydroxy-1,1-bis(hydroxymethyl)ethyl]butanamide]

Row | Compound | Emax [%] | EC50 [nM]
21 | CC1(CCCCOc2ccc(CC(=O)N3CC(CNC[C@H](O)[C@@H](O)[C@H](O)[C@H](O)CO)C3)c(F)c2)CCN(c2ncc(Cl)cn2)CC1 [Example 109, 2-[4-[4-[1-(5-chloropyrimidin-2-yl)-4-methyl-4-piperidyl]butoxy]-2-fluoro-phenyl]-1-[3-[[[(2S,3R,4R,5R)-2,3,4,5,6-pentahydroxyhexyl]amino]methyl]azetidin-1-yl]ethanone] | 100 to 130 | 100 to 1000
22 | O=C(Cc1c(F)cc(OCCCCC2CCN(c3ncc(Cl)cn3)CC2)cc1F)N1CC(CNC[C@H](O)[C@@H](O)[C@H](O)[C@H](O)CO)C1 [Example 55, 2-(4-(4-(1-(5-chloropyrimidin-2-yl)piperidin-4-yl)butoxy)-2,6-difluorophenyl)-1-(3-((((2S,3R,4R,5R)-2,3,4,5,6-pentahydroxyhexyl)amino)methyl)azetidin-1-yl)ethan-1-one] | ≥ 130 | 100 to 1000
